Measured values from the NIST ThermoML archive (doi:10.1016/j.jct.2016.10.007).
± gives the expanded uncertainty stated by the source.

Legend:
[1] = Wilhemy plate method
[2] = wn = mass fraction of the nth substance listed; settings: Wilhemy plate method

CCN(CC)CCO [(diethylamino)ethanol]
[1]
Settings	surface tension liquid-gas [mN/m]
283.2 K	29.7 ± 0.3
293.2 K	28.6 ± 0.3
303.2 K	27.7 ± 0.3
313.2 K	26.4 ± 0.3
323.2 K	25.2 ± 0.3

CCN(CC)CCO [(diethylamino)ethanol] + O
surface tension liquid-gas [mN/m], [2]
Settings	303.2 K	313.2 K	323.2 K
w1 = 0.1	41.2 ± 0.4	39.2 ± 0.5	37.3 ± 0.5
w1 = 0.137	40.1 ± 0.6	–	–
w1 = 0.2	36.5 ± 0.3	34.7 ± 0.4	33.1 ± 0.4
w1 = 0.213	36.3 ± 0.3	–	–
w1 = 0.3	34.9 ± 0.3	33.2 ± 0.3	31.7 ± 0.3
w1 = 0.4	33.6 ± 0.3	32.1 ± 0.3	30.7 ± 0.3
w1 = 0.483	32.9 ± 0.3	–	–
w1 = 0.5	32.7 ± 0.3	31.2 ± 0.3	29.9 ± 0.3
w1 = 0.58	31.8 ± 0.3	–	–
w1 = 0.6	31.3 ± 0.4	29.8 ± 0.3	28.3 ± 0.3
w1 = 0.685	30.7 ± 0.4	–	–
w1 = 0.7	30.3 ± 0.4	28.7 ± 0.3	27.3 ± 0.3
w1 = 0.8	29.6 ± 0.3	28 ± 0.3	26.6 ± 0.3
w1 = 0.814	29.5 ± 0.3	–	–
w1 = 0.9	28.7 ± 0.3	27.3 ± 0.3	26 ± 0.3
w1 = 0.91	28.6 ± 0.3	–	–
w1 = 1	27.7 ± 0.3	26.4 ± 0.3	25.2 ± 0.3

O [water]
Settings	surface tension liquid-gas [mN/m]
[1], 298.2 K	71.9 ± 0.2
